This is an account of results in patent US20030032587A1, “Urocortin peptides” (The Salk Institute for Biological Studies, priority 1995, published 2003).

Bridges are numbered along the chain shown (N, C = ends). Where no end group is shown, it is not given here. [ ]: non-standard residue; d: D form.

The subject of test [1] is mammalian mean arterial blood pressure. In words: in vivo test measuring elevation of mean arterial blood pressure as a result of iv injection. The conditions noted are these: result in words; indicative of a Ucn antagonist. The source says:
The peptide, Ucn(11-40), having the amino acid sequence (see SEQ ID NO: 8): […] is synthesized in the manner described in Example I. To evaluate the biological activity of a candidate peptide as a Ucn antagonist (which will be indicative of its effective binding to CRF receptors), the previously mentioned assay from Endocrinology, 91, supra, is run in the presence of a challenge dose of ovine CRF. […] An in vivo test measuring elevation of mean arterial blood pressure as a result of iv injection is also simply and straightforwardly performed.

The test system of test [2] is rat anterior pituitary cells. Nature of the test: ACTH secretion by anterior pituitary cell cultures in the presence of a challenge dose of ovine CRF (antagonist test). The conditions noted are these: challenge dose of ovine CRF; relative to [D-Phe12,Nle21,38]-r/hCRF(12-41). In kind it is cell-based. The source says:
A straightforward assay using rat anterior pituitary cells in monolayer culture can be carried out to determine whether a candidate peptide thereof will function as a CRF agonist and stimulate ACTH secretion by activating CRF receptors on such cells. The procedure which is used is that generally set forth in Endocrinology, 91, supra. A very similar assay is used to test for antagonistic properties, using a challenge dose of oCRF or the like.
An in vivo test measuring elevation of mean arterial blood pressure as a result of iv injection is also simply and straightforwardly performed.

Test [3] addresses CRF receptors on anterior pituitary cells in culture. Nature of the test: cell-based or functional assay.

As for “H-D-Phe-His-Leu-Leu-Arg-Thr-Leu-Leu-Glu-Leu-Ala-Arg-Thr-Gln-Ser-Gln-Arg-Glu-Arg-Ala-Glu-Gln-Asn-Arg-Ile-Ile-Phe-Asp-Ser-Val-NH2 (H-[dF]HLLRTLLELARTQSQRERAEQNRIIFDSV-NH2; SMILES CC[C@H](C)[C@H](NC(=O)[C@H](CCCNC(=N)N)NC(=O)[C@H](CC(N)=O)NC(=O)[C@H](CCC(N)=O)NC(=O)[C@H](CCC(=O)O)NC(=O)[C@H](C)NC(=O)[C@H](CCCNC(=N)N)NC(=O)[C@H](CCC(=O)O)NC(=O)[C@H](CCCNC(=N)N)NC(=O)[C@H](CCC(N)=O)NC(=O)[C@H](CO)NC(=O)[C@H](CCC(N)=O)NC(=O)[C@@H](NC(=O)[C@H](CCCNC(=N)N)NC(=O)[C@H](C)NC(=O)[C@H](CC(C)C)NC(=O)[C@H](CCC(=O)O)NC(=O)[C@H](CC(C)C)NC(=O)[C@H](CC(C)C)NC(=O)[C@@H](NC(=O)[C@H](CCCNC(=N)N)NC(=O)[C@H](CC(C)C)NC(=O)[C@H](CC(C)C)NC(=O)[C@H](Cc1c[nH]cn1)NC(=O)[C@H](N)Cc1ccccc1)[C@@H](C)O)[C@@H](C)O)C(=O)N[C@H](C(=O)N[C@@H](Cc1ccccc1)C(=O)N[C@@H](CC(=O)O)C(=O)N[C@@H](CO)C(=O)N[C@H](C(N)=O)C(C)C)[C@@H](C)CC) [[D-Phe^11]-Ucn(11-40)]”, in test [1], the “vasoconstrictive activity causing elevation of mean arterial blood pressure” value is recorded as “significant mammalian vasoconstrictive activity”. Besides, the “inhibition of ACTH secretion in vitro, times as effective as the Standard Antagonist (confidence limits)” value (“inhibition … (confidence limits)” for short) in test [2] is 0.551 (0.333-0.857).
Regarding “H-D-Pro-D-Phe-His-Leu-Leu-Arg-Thr-Leu-Leu-Glu-Leu-Ala-Arg-Thr-Gln-Ser-Gln-Arg-Glu-Glu-Ala-D-Glu-Lys-Asn-Arg-Ile-Ile-Phe-Asp-Ser-Val-NH2 (H-[dP][dF]HLLRTLLELARTQSQREEA[dE]KNRIIFDSV-NH2; lactam 20-23; SMILES CC[C@H](C)[C@H](NC(=O)[C@H](CCCNC(=N)N)NC(=O)[C@H](CC(N)=O)NC(=O)[C@@H]1CCCCNC(=O)CC[C@H](NC(=O)[C@H](CCC(=O)O)NC(=O)[C@H](CCCNC(=N)N)NC(=O)[C@H](CCC(N)=O)NC(=O)[C@H](CO)NC(=O)[C@H](CCC(N)=O)NC(=O)[C@@H](NC(=O)[C@H](CCCNC(=N)N)NC(=O)[C@H](C)NC(=O)[C@H](CC(C)C)NC(=O)[C@H](CCC(=O)O)NC(=O)[C@H](CC(C)C)NC(=O)[C@H](CC(C)C)NC(=O)[C@@H](NC(=O)[C@H](CCCNC(=N)N)NC(=O)[C@H](CC(C)C)NC(=O)[C@H](CC(C)C)NC(=O)[C@H](Cc2c[nH]cn2)NC(=O)[C@@H](Cc2ccccc2)NC(=O)[C@H]2CCCN2)[C@@H](C)O)[C@@H](C)O)C(=O)N[C@@H](C)C(=O)N[C@H](CCC(=O)O)C(=O)N1)C(=O)N[C@H](C(=O)N[C@@H](Cc1ccccc1)C(=O)N[C@@H](CC(=O)O)C(=O)N[C@@H](CO)C(=O)N[C@H](C(N)=O)C(C)C)[C@@H](C)CC)”, in test [1], the “vasoconstrictive activity causing elevation of mean arterial blood pressure” value is recorded as “significant mammalian vasoconstrictive activity”. Besides, the “inhibition … (confidence limits)” value in test [2] was 4.99 (2.26-11.55).
Consider “H-D-Phe-His-Leu-Leu-Arg-Thr-Leu-Leu-Glu-Leu-Ala-Arg-Thr-Gln-Ser-Gln-Arg-Glu-Glu-Ala-D-Glu-Lys-Asn-Arg-Ile-Ile-Phe-Asp-Ser-Val-NH2 (H-[dF]HLLRTLLELARTQSQREEA[dE]KNRIIFDSV-NH2; lactam 19-22 (inferred))”, for which the “vasoconstrictive activity causing elevation of mean arterial blood pressure” value in test [1] is listed as “significant mammalian vasoconstrictive activity”. Also, the “inhibition … (confidence limits)” value in test [2] is on record as 4.72 (2.19-10.00).
As to “H-Pro-D-Phe-His-Leu-Leu-Arg-Thr-Leu-Leu-Glu-Leu-Ala-Arg-Thr-Gln-Ser-Gln-Arg-Glu-Glu-Ala-D-Glu-Lys-Asn-Arg-Ile-Ile-Phe-Asp-Ser-Val-NH2 (H-P[dF]HLLRTLLELARTQSQREEA[dE]KNRIIFDSV-NH2; lactam 20-23; SMILES CC[C@H](C)[C@H](NC(=O)[C@H](CCCNC(=N)N)NC(=O)[C@H](CC(N)=O)NC(=O)[C@@H]1CCCCNC(=O)CC[C@H](NC(=O)[C@H](CCC(=O)O)NC(=O)[C@H](CCCNC(=N)N)NC(=O)[C@H](CCC(N)=O)NC(=O)[C@H](CO)NC(=O)[C@H](CCC(N)=O)NC(=O)[C@@H](NC(=O)[C@H](CCCNC(=N)N)NC(=O)[C@H](C)NC(=O)[C@H](CC(C)C)NC(=O)[C@H](CCC(=O)O)NC(=O)[C@H](CC(C)C)NC(=O)[C@H](CC(C)C)NC(=O)[C@@H](NC(=O)[C@H](CCCNC(=N)N)NC(=O)[C@H](CC(C)C)NC(=O)[C@H](CC(C)C)NC(=O)[C@H](Cc2c[nH]cn2)NC(=O)[C@@H](Cc2ccccc2)NC(=O)[C@@H]2CCCN2)[C@@H](C)O)[C@@H](C)O)C(=O)N[C@@H](C)C(=O)N[C@H](CCC(=O)O)C(=O)N1)C(=O)N[C@H](C(=O)N[C@@H](Cc1ccccc1)C(=O)N[C@@H](CC(=O)O)C(=O)N[C@@H](CO)C(=O)N[C@H](C(N)=O)C(C)C)[C@@H](C)CC)”, in test [1], the “vasoconstrictive activity causing elevation of mean arterial blood pressure” value is reported as “significant mammalian vasoconstrictive activity”. Also, in test [2], the “inhibition … (confidence limits)” value is recorded as 2.74 (1.02-8.02).
Consider “H-D-Tyr-His-Leu-Leu-Arg-Thr-Leu-Leu-Glu-Leu-Ala-Arg-Thr-Gln-Ser-Gln-Arg-Glu-Glu-Ala-Glu-Lys-Asn-Arg-Ile-Ile-Phe-Asp-Ser-Val-NH2 (H-[dY]HLLRTLLELARTQSQREEAEKNRIIFDSV-NH2; lactam 19-22; SMILES CC[C@H](C)[C@H](NC(=O)[C@H](CCCNC(=N)N)NC(=O)[C@H](CC(N)=O)NC(=O)[C@@H]1CCCCNC(=O)CC[C@H](NC(=O)[C@H](CCC(=O)O)NC(=O)[C@H](CCCNC(=N)N)NC(=O)[C@H](CCC(N)=O)NC(=O)[C@H](CO)NC(=O)[C@H](CCC(N)=O)NC(=O)[C@@H](NC(=O)[C@H](CCCNC(=N)N)NC(=O)[C@H](C)NC(=O)[C@H](CC(C)C)NC(=O)[C@H](CCC(=O)O)NC(=O)[C@H](CC(C)C)NC(=O)[C@H](CC(C)C)NC(=O)[C@@H](NC(=O)[C@H](CCCNC(=N)N)NC(=O)[C@H](CC(C)C)NC(=O)[C@H](CC(C)C)NC(=O)[C@H](Cc2c[nH]cn2)NC(=O)[C@H](N)Cc2ccc(O)cc2)[C@@H](C)O)[C@@H](C)O)C(=O)N[C@@H](C)C(=O)N[C@@H](CCC(=O)O)C(=O)N1)C(=O)N[C@H](C(=O)N[C@@H](Cc1ccccc1)C(=O)N[C@@H](CC(=O)O)C(=O)N[C@@H](CO)C(=O)N[C@H](C(N)=O)C(C)C)[C@@H](C)CC)”, for which, in test [1], the “vasoconstrictive activity causing elevation of mean arterial blood pressure” value is recorded as “significant mammalian vasoconstrictive activity”. In test [2], the “inhibition … (confidence limits)” value is 4.01 (2.32-7.05).
As for “H-D-Phe-His-Leu-Leu-Arg-Thr-Leu-Leu-Glu-Leu-Ala-Arg-Thr-Gln-Ser-Gln-Arg-Glu-Glu-Ala-Glu-Lys-Asn-Arg-Ile-Ile-Phe-Asp-Ser-Val-NH2 (H-[dF]HLLRTLLELARTQSQREEAEKNRIIFDSV-NH2; lactam 19-22 (inferred))”, the “vasoconstrictive activity causing elevation of mean arterial blood pressure” value in test [1] is “significant mammalian vasoconstrictive activity”. In addition, in test [2], the “inhibition … (confidence limits)” value is 10.34 (4.27-25.58).
DDPPLSIDLTFHLLRTLLELARTQSQRERAEQNRIIFDSV-NH2 [rat urocortin (rat Ucn)] yielded an EC50, secretion of ACTH in cultured rodent pituitary cells in test [3] of 6 pM.
Consider DNPSLSIDLTFHLLRTLLELARTQSQRERAEQNRIIFDSV-NH2 [Human Ucn(1-40)], for which the ACTH secretion, anterior pituitary cell cultures, potency relative to r/hCRF in test [3] amounted to 3.1 times r/hCRF.

B1: [D-Phe11]-Ucn(11-40) (peptide)
peptide: [dF]HLLRTLLELARTQSQRERAEQNRIIFDSV-NH2
modifications: N-terminus assumed
SMILES: CC[C@H](C)[C@H](NC(=O)[C@H](CCCNC(=N)N)NC(=O)[C@H](CC(N)=O)NC(=O)[C@H](CCC(N)=O)NC(=O)[C@H](CCC(=O)O)NC(=O)[C@H](C)NC(=O)[C@H](CCCNC(=N)N)NC(=O)[C@H](CCC(=O)O)NC(=O)[C@H](CCCNC(=N)N)NC(=O)[C@H](CCC(N)=O)NC(=O)[C@H](CO)NC(=O)[C@H](CCC(N)=O)NC(=O)[C@@H](NC(=O)[C@H](CCCNC(=N)N)NC(=O)[C@H](C)NC(=O)[C@H](CC(C)C)NC(=O)[C@H](CCC(=O)O)NC(=O)[C@H](CC(C)C)NC(=O)[C@H](CC(C)C)NC(=O)[C@@H](NC(=O)[C@H](CCCNC(=N)N)NC(=O)[C@H](CC(C)C)NC(=O)[C@H](CC(C)C)NC(=O)[C@H](Cc1c[nH]cn1)NC(=O)[C@H](N)Cc1ccccc1)[C@@H](C)O)[C@@H](C)O)C(=O)N[C@H](C(=O)N[C@@H](Cc1ccccc1)C(=O)N[C@@H](CC(=O)O)C(=O)N[C@@H](CO)C(=O)N[C@H](C(N)=O)C(C)C)[C@@H](C)CC
As to B1, the antagonism of ACTH secretion under a challenge dose of ovine CRF, potency relative to the Standard Antagonist [D-Phe12, Nle21,38]-r/hCRF(12-41) (times Standard Antagonist) in test [3] was 0.551.
